Laboratory results taken from patent US20230293535A1, “ERBB/BTK INHIBITORS” (Dizal (Jiangsu) Pharmaceutical Co., Ltd., priority 2018, published 2023).
Structures can show the parent of a compound that is named as a salt. Where two headings read alike, the source gives them in different places.

Experiments:
[1] = molecular target: T1, human EGFR exon 20 H773_V774insNPH (Homo sapiens, UniProt P00533, INS773NPH); assay: EGFR Exon20 NPH insertion cellular phosphorylation inhibition (MSD pEGFR Y1068/total EGFR); type: cell-based; settings: Ba/F3 EGFR NPH ins cells, 4 h compound, p-EGFR(Y1068)/total EGFR;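 note: IL3-independent Ba/F3 cells with constitutively phosphorylated EGFR, compound exposure at 37 °C under 5% CO2, electrochemiluminescent MSD measurement of the p-EGFR to total EGFR ratio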
T1 construct: host or cells: Ba/F3

[2] = molecular target: T2, human EGFR exon 20 V769_D770insASV (Homo sapiens, UniProt P00533, INS769ASV); assay: EGFR Exon20 ASV insertion cellular phosphorylation inhibition (MSD pEGFR Y1068/total EGFR); type: cell-based; settings: Ba/F3 EGFR ASV ins cells, 4 h compound, p-EGFR(Y1068)/total EGFR;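 note: electrochemiluminescent readout on an MSD SECTOR Imager, IL3-independent transduced cells in medium with 1% FBS, compound concentration series at 37 °C and 5% CO2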
T2 construct: expressed in transfected cells; host or cells: Ba/F3 (DSMZ ACC-300), lentiviral transduction, puromycin selection, IL3 depletion

EGFR L858R&T790M = molecular target: T3, EGFR L858R&T790M (Homo sapiens, UniProt P00533, L858R/T790M); assay: EGFR L858R and T790M cellular phosphorylation inhibition in NCI-H1975 (MSD); type: cell-based; settings: NCI-H1975 cells, 4 h compound, p-EGFR(Y1068)/total EGFR; read-out: EGFR L858R and T790M mutation IC50;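 note: phosphorylated and total EGFR detected by electrochemiluminescence, cells exposed to compound in medium containing 1% FBS at 37 °C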
T3 construct: host or cells: NCI-H1975

[3] = molecular target: T4, human Her2 exon 20 insertion mutation YVMA (Homo sapiens, UniProt P04626, INS775YVMA); assay: Her2 Exon 20 YVMA insertion cellular phosphorylation inhibition (MSD p-Her2 Y1248/total Her2); type: cell-based; settings: Her2 YVMAins cells, 4 h compound;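 note: lentivirally transduced NIH-3T3 cells in 1% FBS medium, electrochemiluminescent MSD read-out, graded compound concentrations at 37 °C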
T4 construct: expressed in transfected cells; host or cells: NIH-3T3, lentiviral transduction, puromycin selection

WT EGFR = molecular target: T5, WT EGFR (Homo sapiens, UniProt P00533); assay: WT EGFR cellular phosphorylation inhibition in A-431 (hEGF stimulated, MSD); type: cell-based; settings: A431 cells, 4 h compound, then 100 ng/ml hEGF 10 min;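 note: electrochemiluminescence read-out of EGFR Tyr1068 phosphorylation expressed as ratio to total EGFR, cells kept in medium with 1% FBS, compounds tested as a concentration series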
T5 construct: host or cells: A-431

Ba/F3 EGFR NPH ins cells = assay: Cell proliferation, Ba/F3 EGFR NPH ins (CellTiter-Glo, 72 h); type: cell-based; settings: Ba/F3 EGFR, 72 h;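 note: IL3-independent cells carrying constitutively phosphorylated EGFR, compound dilution series, viable cells quantified by ATP luminescence, growth relative to DMSO wells after subtracting pre-dosing (day 0) baseline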
Ba/F3 EGFR ASV ins cells = assay: Cell proliferation, Ba/F3 EGFR ASV ins (CellTiter-Glo, 72 h); type: cell-based; settings: Ba/F3 EGFR, 72 h;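 note: IL3-independent Ba/F3 cells transduced with EGFR V769_D770insASV, cellular ATP luminescence after compound exposure, growth relative to DMSO control with the day-0 baseline reading subtracted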
[4] = tested on: NCI-H1975 EGFR L858R/T790M cells; assay: Cell proliferation, NCI-H1975 EGFR L858R/T790M (CellTiter-Glo, 72 h); type: cell-based; settings: Homo sapiens, NCI-H1975, 72 h;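 note: viable cells quantified by luciferase-based ATP luminescence, proliferation expressed relative to DMSO-treated wells (100%) after subtracting a parallel plate read at the time of dosing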
[5] = tested on: Her2 exon 20 insertion YVMA transduced NIH-3T3 cell line; assay: Cell proliferation, Her2 YVMAins NIH-3T3 (CellTiter-Glo, 72 h); type: cell-based; settings: Mus musculus, NIH3T3, 72 h, Her2 YVMAins cells, 72 h proliferation; read-out: Her2 Exon 20 YVMA insertion GI50;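 note: viable cells quantified by ATP luminescence, growth over a day-zero baseline plate expressed as percent of DMSO control growth, compound dilution series in 10% FBS medium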
WT EGFR cell line A-431 = assay: Cell proliferation, WT EGFR A431 (CellTiter-Glo, 72 h); type: cell-based; settings: Homo sapiens, A-431, 72 h;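 note: proliferation from a luminescent ATP viability signal, expressed as 100 × (treated minus time-zero plate) over (DMSO control minus time-zero plate), cells grown with 10% FBS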
OCI-LY-10 cells = assay: BTK (wt) cell proliferation, OCI-LY-10 (CellTiter-Glo, 72 h); type: cell-based; settings: OCI-LY-10 cells, 72 h, CellTiter-Glo, read-out: BTK WT OCI-LY-10 GI50;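 note: viable cells quantified via cellular ATP luminescence, proliferation given as percent of DMSO control after subtracting a duplicate plate read at time of dosing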
Experimental: (§1) OCI-LY-10 at 3,750 cells/well, TMD-8 and Ri-1 at 2,000 cells/well, and DB at 1,250 cells/well, respectively, were sorted into 384-well plates in RPMI1640 medium with 10% FBS. After overnight incubation, all cells were incubated with compound at a series of concentrations. Meanwhile, a duplicated plate of each cell line was prepared for measuring G0 value. The dosed plates were further incubated for 72 hours and the number of viable cells was measured by CellTiter-Glo® Luminescent Cell Viability Assay (Promega), a luminescent method for determining the number of viable cells through measurement of cellular ATP concentration using Envision plate reader (PerkinElmer). The percentage of proliferation was calculated as: % Proliferation = 100 × (G3 value of sample well - G0 value)/(G3 value of DMSO control - G0 value).

TMD-8 cells = assay: BTK (wt) cell proliferation, TMD-8 (CellTiter-Glo, 72 h); type: cell-based; settings: Homo sapiens, TMD8, 72 h, TMD-8 cells, 72 h, CellTiter-Glo; read-out: BTK WT TMD-8 GI50;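 note: viable cells quantified by ATP-based luminescence, proliferation expressed as percent of DMSO control after subtracting a time-zero baseline plate read at dosing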
Experimental: as §1

Ri-1 cells = assay: BTK (wt) cell proliferation, Ri-1 (CellTiter-Glo, 72 h); type: cell-based; settings: Ri-1 cells, 72 h, CellTiter-Glo, read-out: BTK WT Ri-1 GI50;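 note: viable cells quantified as cellular ATP luminescence, proliferation normalized to a time-zero plate and the DMSO control, compounds tested across a dilution series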
DB cells = assay: BTK (wt) cell proliferation, DB (CellTiter-Glo, 72 h); type: cell-based; settings: Homo sapiens, DB, DB cells, CellTiter-Glo, read-out: Non-BCR activated DB GI50;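 note: DB cells in 384-well plates given a dilution series of compound, viable cells read by ATP luminescence, growth expressed versus DMSO control after subtracting a time-zero plate reading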
[6] = In vitro rat hepatocytes clearance assay; settings: male, rat, cryopreserved rat hepatocytes (suspension), rat hepatocytes Clint (µL/min/10^6cells), 1 µM-range incubation up to 100 min
[7] = In vitro human hepatocytes clearance assay; settings: both, human, cryopreserved human hepatocytes (suspension), human hepatocytes Clint (µL/min/10^6cells), mixed gender human hepatocytes, incubation up to 100 min
Experimental: The protocol for rat/human hepatocytes metabolic stability assay is employed to determine the clearance of the compounds of the present disclosure in vitro.
Rat hepatocytes in male gender and human hepatocytes in mixed gender were obtained from commercial vendors (e.g., BioreclamationIVT) and stored at -150° C. prior to use. 10 mM stock solutions of tested compounds were prepared in DMSO. Thawing medium and supplement incubation medium (serum-free) were placed in a 37° C. water bath for at least 15 minutes prior to use. Stock solutions were diluted to 100 µM by combining 198 µL acetonitrile and 2 µL of 10 mM stock solution.
Vials of cryopreserved hepatocytes were removed from storage, ensured that vials remain at cryogenic temperatures. The vials were thawed in a 37° C. water bath with gently shaking. Vials were kept in water bath until all ice crystals had dissolved and were no longer visible. Vials were sprayed with 70% ethanol before being transferred to a biosafety cabinet. And then the contents were poured into the 50 mL thawing medium conical tube. Vials were centrifuged at 100 g for 10 minutes at room temperature.
Cell viability and density were counted using a Trypan Blue exclusion, and then cells were diluted with serum-free incubation medium to a working cell density of 1 × 10^6 viable cells/ml. […] The inactivated hepatocytes were used to prepare negative samples, which were used to exclude the misleading factor that resulted from instability of chemical itself.
Aliquots of 247.5 µL hepatocytes were dispensed into each well of a 96-well non-coated plate. The plate was placed in the incubator on an orbital shaker for approximately 10 minutes. Aliquots of 2.5 µL of the 100 µM test compounds were added into respective wells of the non-coated 96-well plate to start the reaction. This assay was performed in duplicate. The plate was incubated in the incubator on an orbital shaker for the designed time points. […] Samples were centrifuges for 20 minutes at 4000 g and aliquots of 100 µL of the supernatants were used for LC-MS/MS analysis for measurement of test compounds
In vitro hepatocyte clearance was estimated based on determination of elimination half-life (T½) of compounds disappearance from their initial concentrations. Peak area ratios of each compound (test or control) to IS was calculated. Ln (%Control) versus Incubation Time (min) curve was plotted, and the slope of a linear fitting line was calculated.

[8] = Ba/F3 EGFR NPH ins, 72 h proliferation, read-out: EGFR Exon20 NPH insertion GI50
[9] = Ba/F3 EGFR ASV ins, 72 h proliferation, read-out: EGFR Exon20 ASV insertion GI50
[10] = NCI-H1975, 72 h proliferation, read-out: EGFR L858R and T790M mutation GI50
[11] = A431, 72 h proliferation, read-out: EGFR WT A431 GI50
[12] = read-out: EGFR Exon20 NPH insertion GI50 (nM)
[13] = read-out: EGFR Exon20 ASV insertion GI50 (nM)
[14] = read-out: EGFR L858R and T790M mutation GI50 (nM)
[15] = read-out: EGFR WT A431 GI50 (nM)

T4 sequence (P04626 with tags, fused parts or gaps INS775YVMA): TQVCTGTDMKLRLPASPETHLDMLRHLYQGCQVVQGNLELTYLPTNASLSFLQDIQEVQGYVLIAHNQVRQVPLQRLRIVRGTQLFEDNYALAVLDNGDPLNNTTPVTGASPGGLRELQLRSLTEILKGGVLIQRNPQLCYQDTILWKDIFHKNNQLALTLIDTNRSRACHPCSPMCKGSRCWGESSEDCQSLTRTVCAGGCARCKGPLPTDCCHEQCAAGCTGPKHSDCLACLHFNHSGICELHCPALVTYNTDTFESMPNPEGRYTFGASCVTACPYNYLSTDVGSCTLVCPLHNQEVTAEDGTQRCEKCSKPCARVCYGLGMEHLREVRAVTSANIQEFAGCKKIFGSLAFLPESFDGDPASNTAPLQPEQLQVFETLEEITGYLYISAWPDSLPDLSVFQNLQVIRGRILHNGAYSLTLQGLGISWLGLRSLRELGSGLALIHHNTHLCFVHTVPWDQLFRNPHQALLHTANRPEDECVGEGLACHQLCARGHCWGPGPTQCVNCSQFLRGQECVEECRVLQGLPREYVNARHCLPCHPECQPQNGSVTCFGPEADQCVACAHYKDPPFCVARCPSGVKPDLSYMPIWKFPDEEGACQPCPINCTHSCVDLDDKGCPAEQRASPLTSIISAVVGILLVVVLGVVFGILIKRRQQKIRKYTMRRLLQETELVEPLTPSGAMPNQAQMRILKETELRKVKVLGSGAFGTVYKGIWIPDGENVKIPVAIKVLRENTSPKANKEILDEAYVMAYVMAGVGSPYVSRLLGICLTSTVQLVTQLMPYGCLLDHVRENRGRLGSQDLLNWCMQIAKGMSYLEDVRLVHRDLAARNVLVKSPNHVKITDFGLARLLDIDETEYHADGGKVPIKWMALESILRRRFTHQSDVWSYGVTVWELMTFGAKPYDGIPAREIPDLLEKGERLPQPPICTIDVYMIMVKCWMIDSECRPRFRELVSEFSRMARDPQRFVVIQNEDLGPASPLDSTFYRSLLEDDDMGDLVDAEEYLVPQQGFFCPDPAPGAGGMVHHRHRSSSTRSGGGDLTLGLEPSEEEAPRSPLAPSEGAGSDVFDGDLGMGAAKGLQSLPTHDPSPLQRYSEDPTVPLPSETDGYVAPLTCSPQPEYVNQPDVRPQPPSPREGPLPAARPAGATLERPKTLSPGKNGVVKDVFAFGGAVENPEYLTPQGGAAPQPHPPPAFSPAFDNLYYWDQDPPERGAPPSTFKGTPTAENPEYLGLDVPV
T2 sequence (P00533 with tags, fused parts or gaps INS769ASV): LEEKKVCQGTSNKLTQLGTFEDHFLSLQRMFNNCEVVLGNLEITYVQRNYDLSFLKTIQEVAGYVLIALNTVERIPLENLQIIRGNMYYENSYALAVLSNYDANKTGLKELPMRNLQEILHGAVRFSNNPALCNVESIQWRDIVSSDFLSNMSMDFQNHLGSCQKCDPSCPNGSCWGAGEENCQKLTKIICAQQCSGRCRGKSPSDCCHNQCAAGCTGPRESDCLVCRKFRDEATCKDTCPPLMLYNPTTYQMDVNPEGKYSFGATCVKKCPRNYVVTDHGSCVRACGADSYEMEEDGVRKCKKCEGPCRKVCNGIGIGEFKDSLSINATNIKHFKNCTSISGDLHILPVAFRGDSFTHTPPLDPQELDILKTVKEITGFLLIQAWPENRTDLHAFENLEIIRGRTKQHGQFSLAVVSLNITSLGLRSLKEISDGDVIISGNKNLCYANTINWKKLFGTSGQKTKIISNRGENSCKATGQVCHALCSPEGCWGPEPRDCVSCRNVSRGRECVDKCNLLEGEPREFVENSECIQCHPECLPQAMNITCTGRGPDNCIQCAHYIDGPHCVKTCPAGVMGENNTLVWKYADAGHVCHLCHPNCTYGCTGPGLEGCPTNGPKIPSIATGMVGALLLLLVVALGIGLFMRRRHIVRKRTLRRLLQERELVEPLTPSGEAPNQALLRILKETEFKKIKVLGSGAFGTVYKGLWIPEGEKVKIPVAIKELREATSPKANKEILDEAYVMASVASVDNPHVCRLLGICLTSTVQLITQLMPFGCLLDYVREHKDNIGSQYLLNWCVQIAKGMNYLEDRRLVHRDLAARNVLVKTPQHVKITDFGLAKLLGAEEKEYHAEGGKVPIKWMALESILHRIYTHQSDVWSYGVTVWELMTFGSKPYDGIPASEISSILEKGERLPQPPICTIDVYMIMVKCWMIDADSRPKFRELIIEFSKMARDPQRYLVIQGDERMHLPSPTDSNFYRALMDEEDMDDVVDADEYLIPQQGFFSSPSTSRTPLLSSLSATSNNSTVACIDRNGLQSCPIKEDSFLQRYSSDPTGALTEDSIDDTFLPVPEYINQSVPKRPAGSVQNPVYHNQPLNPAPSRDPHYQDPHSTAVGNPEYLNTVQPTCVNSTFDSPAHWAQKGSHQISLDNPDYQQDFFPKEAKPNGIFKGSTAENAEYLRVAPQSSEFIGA
T1 sequence (P00533 with tags, fused parts or gaps INS773NPH): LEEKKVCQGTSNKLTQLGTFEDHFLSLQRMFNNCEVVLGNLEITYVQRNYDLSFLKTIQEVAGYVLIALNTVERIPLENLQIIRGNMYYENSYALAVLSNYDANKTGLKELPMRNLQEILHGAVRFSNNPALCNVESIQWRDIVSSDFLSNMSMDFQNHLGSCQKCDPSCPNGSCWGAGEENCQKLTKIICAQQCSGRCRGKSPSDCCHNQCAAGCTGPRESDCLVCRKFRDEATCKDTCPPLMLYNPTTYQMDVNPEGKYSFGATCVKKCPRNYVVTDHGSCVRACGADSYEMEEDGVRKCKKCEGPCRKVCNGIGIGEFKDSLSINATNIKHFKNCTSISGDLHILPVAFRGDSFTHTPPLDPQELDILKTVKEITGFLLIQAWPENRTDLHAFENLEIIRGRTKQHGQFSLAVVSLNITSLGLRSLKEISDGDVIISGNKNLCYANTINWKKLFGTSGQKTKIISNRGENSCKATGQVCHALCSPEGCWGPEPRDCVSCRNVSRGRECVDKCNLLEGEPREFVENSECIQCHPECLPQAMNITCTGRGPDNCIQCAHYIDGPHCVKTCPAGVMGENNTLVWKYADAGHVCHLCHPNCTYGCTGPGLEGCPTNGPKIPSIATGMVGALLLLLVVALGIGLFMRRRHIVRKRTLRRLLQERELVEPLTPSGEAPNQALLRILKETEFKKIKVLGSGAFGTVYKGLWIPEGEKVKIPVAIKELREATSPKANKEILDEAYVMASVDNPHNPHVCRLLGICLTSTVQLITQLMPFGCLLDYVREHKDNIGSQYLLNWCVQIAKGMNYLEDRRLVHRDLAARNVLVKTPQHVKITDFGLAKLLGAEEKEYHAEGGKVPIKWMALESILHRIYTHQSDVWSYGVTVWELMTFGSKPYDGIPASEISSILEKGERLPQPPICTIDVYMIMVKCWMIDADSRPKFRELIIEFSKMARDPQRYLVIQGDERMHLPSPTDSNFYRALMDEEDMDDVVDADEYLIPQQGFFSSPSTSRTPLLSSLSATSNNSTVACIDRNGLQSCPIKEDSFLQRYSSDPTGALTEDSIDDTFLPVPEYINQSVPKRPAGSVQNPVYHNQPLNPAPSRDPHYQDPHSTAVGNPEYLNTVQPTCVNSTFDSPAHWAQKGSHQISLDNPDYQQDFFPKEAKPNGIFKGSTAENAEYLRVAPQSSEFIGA
T3 sequence (P00533 25-1210 T790M/L858R): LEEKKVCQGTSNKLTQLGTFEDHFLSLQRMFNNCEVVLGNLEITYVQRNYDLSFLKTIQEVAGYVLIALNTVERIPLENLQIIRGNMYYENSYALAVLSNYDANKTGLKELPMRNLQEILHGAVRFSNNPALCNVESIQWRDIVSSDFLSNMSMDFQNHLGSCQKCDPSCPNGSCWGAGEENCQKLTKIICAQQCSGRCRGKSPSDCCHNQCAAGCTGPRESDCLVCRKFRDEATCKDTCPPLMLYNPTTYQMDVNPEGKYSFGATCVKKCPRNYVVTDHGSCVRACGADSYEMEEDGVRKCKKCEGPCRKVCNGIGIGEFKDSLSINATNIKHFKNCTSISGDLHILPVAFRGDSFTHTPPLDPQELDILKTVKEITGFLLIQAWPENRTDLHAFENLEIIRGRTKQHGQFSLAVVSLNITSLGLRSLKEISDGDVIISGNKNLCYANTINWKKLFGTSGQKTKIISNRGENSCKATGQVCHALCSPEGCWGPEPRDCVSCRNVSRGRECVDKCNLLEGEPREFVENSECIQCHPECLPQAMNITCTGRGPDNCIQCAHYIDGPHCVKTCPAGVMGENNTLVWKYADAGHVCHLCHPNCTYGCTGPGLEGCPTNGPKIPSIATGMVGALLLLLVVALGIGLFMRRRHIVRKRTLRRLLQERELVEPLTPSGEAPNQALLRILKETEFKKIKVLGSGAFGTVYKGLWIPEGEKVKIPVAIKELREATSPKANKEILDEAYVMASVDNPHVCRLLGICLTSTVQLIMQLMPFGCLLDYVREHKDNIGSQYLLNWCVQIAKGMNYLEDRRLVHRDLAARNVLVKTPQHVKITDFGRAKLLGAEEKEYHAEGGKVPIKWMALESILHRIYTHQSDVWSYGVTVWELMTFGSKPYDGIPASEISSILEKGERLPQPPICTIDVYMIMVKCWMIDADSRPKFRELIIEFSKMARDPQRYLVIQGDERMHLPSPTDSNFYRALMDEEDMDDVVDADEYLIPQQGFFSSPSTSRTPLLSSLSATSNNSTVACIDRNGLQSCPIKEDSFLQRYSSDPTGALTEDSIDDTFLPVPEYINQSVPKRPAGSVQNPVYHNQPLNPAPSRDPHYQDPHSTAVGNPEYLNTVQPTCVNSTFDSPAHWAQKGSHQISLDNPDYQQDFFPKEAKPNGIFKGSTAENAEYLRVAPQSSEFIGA

Compound | IC50 [1] | IC50 [2] | IC50 (EGFR L858R&T790M) | IC50 [3] | IC50 (WT EGFR) | GI50 (Ba/F3 EGFR NPH ins cells; [8]) | GI50 (Ba/F3 EGFR ASV ins cells; [9]) | GI50 [4, 10] | GI50 [5] | GI50 (WT EGFR cell line A-431; [11]) | GI50 (TMD-8 cells) | GI50 (DB cells) | hepatocyte CLint at 1 µM [6] | hepatocyte CLint at 1 µM [7] | GI50 (OCI-LY-10 cells; Homo sapiens, OCI-Ly10, 72 h) | GI50 (Ri-1 cells; Ri-1, 72 h) | GI50 (Ba/F3 EGFR NPH ins cells; [12]) | GI50 (Ba/F3 EGFR ASV ins cells; [13]) | GI50 [4, 14] | GI50 (WT EGFR cell line A-431; [15]) | further results
C=CC(=O)Nc1cc(Nc2ncnc(Nc3cc(Cl)c(F)cc3C(C)(O)CC)n2)c(OC)cc1N1CC[C@@H](N(C)C)C1 (single isomer, unassigned) [Compound 69, N-(5-(4-(5-chloro-4-fluoro-2-((R)-2-hydroxybutan-2-yl)phenylamino)-1,3,5-triazin-2-ylamino)-2-((R)-3-(dimethylamino)pyrrolidin-1-yl)-4-methoxyphenyl)acrylamide or N-(5-(4-(5-chloro-4-fluoro-2-((S)-2-hydroxybutan-2-yl)phenylamino)-1,3,5-triazin-2-ylamino)-2-((R)-3-(dimethylamino)pyrrolidin-1-yl)-4-methoxyphenyl)acrylamide] | 46.3 nM | 20.2 nM | 1.2 nM | 33.1 nM | 56.2 nM | 58.1 nM | 70.1 nM | 5.5 nM | 89.1 nM | 12.2 nM | 10.1 nM | > 3000 nM | 10.7 µL/min/1e6 cells | 4.12 µL/min/1e6 cells | – | – | – | – | – | – | GI50 (OCI-LY-10 cells): 74.5 nM; GI50 (Ri-1 cells): 13.9 nM
[2H]C([2H])([2H])N(CCN(C)c1cc(OC)c(Nc2ncnc(Nc3cc(F)c(F)cc3C(C)(C)O)n2)cc1NC(=O)C=C)C([2H])([2H])[2H] [Compound 22, N-(2-((2-(bis(methyl-d3)amino)ethyl)(methyl)amino)-5-((4-((4,5-difluoro-2-(2-hydroxypropan-2-yl)phenyl)amino)-1,3,5-triazin-2-yl)amino)-4-methoxyphenyl) acrylamide] | 11.2 nM | 8.7 nM | 0.4 nM | 5.5 nM | 12.2 nM | 26.5 nM | 26.5 nM | 2.7 nM | 44.4 nM | 12 nM | – | – | 78.4 µL/min/1e6 cells | 9.78 µL/min/1e6 cells | – | – | – | – | – | – | –
C=CC(=O)Nc1cc(Nc2nccc(Nc3cc(Cl)c(F)cc3C(C)(C)O)n2)c(OC)cc1N(C)CCN(C)C [Compound 36, (N-(5-(4-(5-chloro-4-fluoro-2-(2-hydroxypropan-2-yl)phenylamino)pyrimidin-2-ylamino)-2-((2-(dimethylamino)ethyl)(methyl)amino)-4-methoxyphenyl)acrylamide)] | – | – | – | 5.3 nM | – | 42.7 nM | 37.8 nM | 1.6 nM | 75.2 nM | 41.6 nM | 8.32 nM | 881 nM | > 300 µL/min/1e6 cells | 10.3 µL/min/1e6 cells | 6.41 nM | 8.2 nM | – | – | – | – | –
C=CC(=O)Nc1cc(Nc2nccc(Nc3cc(Cl)c(F)cc3C(C)(C)O)n2)c(OC)cc1N1C[C@H]2CN(C)[C@H]2C1 [Compound 89, N-(5-(4-(5-chloro-4-fluoro-2-(2-hydroxypropan-2-yl)phenylamino)pyrimidin-2-ylamino)-4-methoxy-2-((1R,5R)-6-methyl-3,6-diazabicyclo[3.2.0]heptan-3-yl)phenyl)acrylamide formic acid salt] | 14.8 nM | 23 nM | 0.7 nM | 6.8 nM | 148 nM | – | – | – | 158 nM | – | 9.86 nM | > 3000 nM | – | 3.84 µL/min/1e6 cells | 11.4 nM | 17.5 nM | 63.8 nM | 115 nM | 2.8 nM | 63.1 nM | –
C=CC(=O)Nc1cc(Nc2nccc(Nc3cc(Cl)c(F)cc3C(C)(C)O)n2)c(OC)cc1N1C[C@@H](C)C[C@@H]1CN(C)C [Compound 91, N-(5-(4-(5-chloro-4-fluoro-2-(2-hydroxypropan-2-yl)phenylamino)pyrimidin-2-ylamino)-2-((2R,4S)-2-((dimethylamino)methyl)-4-methylpyrrolidin-l-yl)-4-methoxyphenyl) acrylamide] | 26.2 nM | 41.2 nM | 1.5 nM | 22.5 nM | 183 nM | 64.6 nM | 69.6 nM | 2.2 nM | 148 nM | 31.5 nM | 58 nM | > 3000 nM | – | 8.57 µL/min/1e6 cells | 86.8 nM | 79.4 nM | – | – | – | – | –
C=CC(=O)Nc1cc(Nc2ncnc(Nc3cc4cc[nH]c4cc3C(C)(C)O)n2)c(OC)cc1N(C)CCN(C)C [Compound 95, N-(2-((2-(dimethylamino)ethyl)(methyl)amino)-5-(4-(6-(2-hydroxypropan-2-yl)-1H-indol-5-ylamino)-1,3,5-triazin-2-ylamino)-4-methoxyphenyl)acrylamide] | 7.1 nM | 6.2 nM | 0.3 nM | 2.2 nM | 3.5 nM | 20.5 nM | 16 nM | 3.7 nM | 15.8 nM | 2.9 nM | 1.16 nM | > 3000 nM | – | – | 0.29 nM | 971 nM | – | – | – | – | –
C=CC(=O)Nc1cc(Nc2nccc(Nc3cc(Cl)c(F)cc3C(C)(C)O)n2)c(OC)cc1N1C[C@@H]2CN(C)[C@@H]2C1 [Compound 97, N-(5-(4-(5-chloro-4-fluoro-2-(2-hydroxypropan-2-yl)phenylamino)pyrimidin-2-ylamino)-4-methoxy-2-((1 S,5 S)-6-methyl-3,6-diazabicyclo[3.2.0]heptan-3-yl)phenyl)acrylamide formic acid salt] | 17.4 nM | 14.4 nM | 0.7 nM | 2.8 nM | 160 nM | – | – | – | 93.9 nM | – | 18.6 nM | > 3000 nM | – | 4.25 µL/min/1e6 cells | 24 nM | 54.7 nM | 74.2 nM | 86.7 nM | 3.4 nM | 38 nM | –
C=CC(=O)Nc1cc(Nc2nccc(Nc3cc(Cl)c(F)cc3C(C)(C)O)n2)c(OC)cc1N1CCC[C@@H]1CN1CCC1 [Compound 98, (R)-N-(2-(2-(azetidin-1-ylmethyl)pyrrolidin-1-yl)-5-(4-(5-chloro-4-fluoro-2-(2-hydroxypropan-2-yl)phenylamino)pyrimidin-2-ylamino)-4-methoxyphenyl) acrylamide formic acid salt] | 19.1 nM | 21.4 nM | 0.9 nM | 3.1 nM | 190 nM | – | – | – | 135 nM | – | 71.5 nM | > 3000 nM | – | 7.6 µL/min/1e6 cells | 115 nM | 108 nM | 112 nM | 129 nM | 3.1 nM | 87.8 nM | –
